Measured values reported in patent US20240360134A1, “PYRAZOLOPYRIMIDINES AND THEIR USES AS PDGFR INHIBITORS” (priority 2021, published 2024).
Read-outs that look alike come from different tables or passages of the source.

What was measured:
[1] = molecular target: His6-TEV-PDGFRβ (557-1016) (Homo sapiens (Human), UniProt P09619); assay: PDGFRβ HTRF Assay; assay type: biochemical
Method: Instrumentation: a. Compound liquid handling: LabCyte Echo; b. Reagent liquid handling: Thermo Scientific Multidrop Combi; c. BMG PHERAStar multilabel plate reader.
Protein Reagent: His6-TEV-PDGFRβ Protein Prep prepared at Accelagen.
Assay buffer stock solution, contains 50 mM Hepes, 10 mM MgCl2, 1 mM EGTA, and 0.01% Brij-35, 0.01% ovalbumin, 2 mM DTT at pH 7.5, in molecular biology grade water. Store at room temperature.
Assay buffer. Dilute 5× Kinase buffer 5-fold with molecular biology grade water and add DTT to 2 mM and ovalbumin to 0.1 mg/mL (or 0.01%).
2× protein solution. Make a working solution of […] PDGFRβ in assay buffer. Keep on ice until use to maintain enzyme stability.
2× substrate solution. Make a working solution of 1.6 mM ATP and 1 μM TK-substrate biotin peptide in assay buffer. 3× quench/detection solution.
Step 2. PDGFRβ E+I pre-incubation: Add 2 μL 2× protein solution to columns 1-24 using the Multidrop Combi. Centrifuge at 1000 rpm for 1 min. Incubate 30 min at RT
Step 2. Enzymatic reaction: Add 2 μL substrate solution to columns 1-24 to initiate the reaction using the Multidrop Combi; cover/seal the assay plate to reduce evaporation. Centrifuge at 1000 rpm for 1 min. Incubate at room temperature for 3 hours.
Final concentrations of components in PDGFRp cascade assay:
0.5 μM TK-substrate biotin peptide
Step 3. Quench/Detection: Add 2 μl 3× quench/detection solution to columns 1-24 using the Multidrop Combi; cover/seal the plate. Centrifuge 1 min 1000 rpm. Incubate at RT for 60 min.
HTRF ratio values calculated by the instrument (Ratio is acceptor counts/donor counts*10,000) is exported from the plate reader and used in data analysis. The exported data will be used to calculate 1) compound activity and 2) assay statistics. […] Assay statistics can include Robust Z′ and Signal to Background.
% Inhibition Calculation: Percent inhibition will be calculated for sample wells based on the equation: […]
IC50 Calculation: For IC50 determination, full 11-point dose response data will be processed using the following equation: […]

[2] = molecular target: Tb-labeled inactive PDGFRβ (Homo sapiens (Human), UniProt P09619); assay: biochemical; assay type: binding
Chain of Tb-labeled inactive PDGFRβ (P09619 whole entry, looked up): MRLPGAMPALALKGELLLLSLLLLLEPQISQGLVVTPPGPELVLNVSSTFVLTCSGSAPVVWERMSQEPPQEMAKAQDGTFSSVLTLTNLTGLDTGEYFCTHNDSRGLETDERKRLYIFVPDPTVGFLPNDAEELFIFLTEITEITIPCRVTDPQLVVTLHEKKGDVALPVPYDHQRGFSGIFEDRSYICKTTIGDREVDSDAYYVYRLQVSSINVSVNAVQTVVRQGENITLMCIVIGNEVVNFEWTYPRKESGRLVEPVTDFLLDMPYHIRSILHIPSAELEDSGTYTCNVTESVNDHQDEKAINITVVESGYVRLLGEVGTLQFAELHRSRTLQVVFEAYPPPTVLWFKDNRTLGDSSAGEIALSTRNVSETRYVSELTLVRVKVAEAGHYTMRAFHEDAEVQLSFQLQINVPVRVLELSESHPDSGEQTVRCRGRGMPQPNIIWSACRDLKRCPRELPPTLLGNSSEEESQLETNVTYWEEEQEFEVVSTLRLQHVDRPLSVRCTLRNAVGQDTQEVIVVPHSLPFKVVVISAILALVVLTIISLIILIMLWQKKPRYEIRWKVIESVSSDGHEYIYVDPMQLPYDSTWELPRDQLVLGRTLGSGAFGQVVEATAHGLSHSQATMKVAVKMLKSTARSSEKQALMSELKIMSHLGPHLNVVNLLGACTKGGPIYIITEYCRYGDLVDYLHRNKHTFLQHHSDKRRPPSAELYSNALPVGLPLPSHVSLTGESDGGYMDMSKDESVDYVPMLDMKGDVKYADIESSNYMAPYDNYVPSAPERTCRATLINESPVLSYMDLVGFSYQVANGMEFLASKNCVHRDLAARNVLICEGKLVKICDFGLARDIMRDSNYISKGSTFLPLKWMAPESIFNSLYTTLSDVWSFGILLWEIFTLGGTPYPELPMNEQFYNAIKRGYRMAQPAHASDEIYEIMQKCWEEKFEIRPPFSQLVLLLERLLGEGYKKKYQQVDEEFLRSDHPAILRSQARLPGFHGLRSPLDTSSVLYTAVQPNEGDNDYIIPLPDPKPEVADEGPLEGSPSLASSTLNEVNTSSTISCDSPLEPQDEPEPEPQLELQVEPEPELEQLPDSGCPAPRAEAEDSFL

PDGFRβ = PDGFRβ (Rattus norvegicus (Rat), UniProt Q05030); assay: PDGFRβ Cellular Assay (PDGFRb P-Y751 HTRF, PDGF-BB stimulated A10 cells); assay type: cell-based
Chain of PDGFRβ (Q05030 whole entry, looked up): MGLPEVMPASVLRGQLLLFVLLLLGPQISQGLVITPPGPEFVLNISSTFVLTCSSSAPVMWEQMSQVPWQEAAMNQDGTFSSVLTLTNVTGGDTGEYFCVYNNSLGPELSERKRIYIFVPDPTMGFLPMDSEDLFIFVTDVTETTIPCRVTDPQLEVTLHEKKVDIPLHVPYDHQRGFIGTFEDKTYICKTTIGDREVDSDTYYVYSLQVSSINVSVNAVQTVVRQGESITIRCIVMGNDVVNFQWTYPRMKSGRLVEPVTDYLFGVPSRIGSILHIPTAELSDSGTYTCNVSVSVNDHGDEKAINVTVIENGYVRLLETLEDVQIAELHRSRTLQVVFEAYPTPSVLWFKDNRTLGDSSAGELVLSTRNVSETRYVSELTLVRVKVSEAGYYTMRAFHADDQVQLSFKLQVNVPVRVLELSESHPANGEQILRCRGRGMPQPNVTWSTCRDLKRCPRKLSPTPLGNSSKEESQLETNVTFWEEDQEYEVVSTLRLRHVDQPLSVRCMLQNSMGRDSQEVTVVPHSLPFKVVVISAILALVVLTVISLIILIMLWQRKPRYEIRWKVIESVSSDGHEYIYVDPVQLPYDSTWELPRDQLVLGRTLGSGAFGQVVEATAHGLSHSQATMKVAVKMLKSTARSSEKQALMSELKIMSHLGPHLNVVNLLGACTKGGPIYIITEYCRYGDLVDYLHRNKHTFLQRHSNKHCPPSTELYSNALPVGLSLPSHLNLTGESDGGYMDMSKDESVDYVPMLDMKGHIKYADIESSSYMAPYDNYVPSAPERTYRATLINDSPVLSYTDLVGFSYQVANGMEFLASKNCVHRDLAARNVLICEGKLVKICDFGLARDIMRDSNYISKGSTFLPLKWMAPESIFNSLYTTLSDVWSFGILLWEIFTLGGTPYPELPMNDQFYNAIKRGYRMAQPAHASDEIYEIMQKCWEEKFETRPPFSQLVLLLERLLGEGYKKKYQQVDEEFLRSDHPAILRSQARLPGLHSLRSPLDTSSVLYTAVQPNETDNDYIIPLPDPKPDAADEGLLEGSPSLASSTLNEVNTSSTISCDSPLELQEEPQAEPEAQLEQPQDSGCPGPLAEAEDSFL
In short: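 Rat A10 cells plated overnight were treated with compound for 3 h, stimulated with rat PDGF-BB (working stock 100 ng/mL in 10% FBS medium) for 10 min, then lysed.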

VEGFR2, unphosphorylated = VEGFR2, unphosphorylated (Homo sapiens (Human), UniProt P35968); assay: VEGFR ADP GLO assay; assay type: biochemical; settings: 5 nM VEGFR2, 1.2 mM ATP, 1 mg/mL Srctide, 180 min
Chain of VEGFR2, unphosphorylated (P35968 whole entry, looked up): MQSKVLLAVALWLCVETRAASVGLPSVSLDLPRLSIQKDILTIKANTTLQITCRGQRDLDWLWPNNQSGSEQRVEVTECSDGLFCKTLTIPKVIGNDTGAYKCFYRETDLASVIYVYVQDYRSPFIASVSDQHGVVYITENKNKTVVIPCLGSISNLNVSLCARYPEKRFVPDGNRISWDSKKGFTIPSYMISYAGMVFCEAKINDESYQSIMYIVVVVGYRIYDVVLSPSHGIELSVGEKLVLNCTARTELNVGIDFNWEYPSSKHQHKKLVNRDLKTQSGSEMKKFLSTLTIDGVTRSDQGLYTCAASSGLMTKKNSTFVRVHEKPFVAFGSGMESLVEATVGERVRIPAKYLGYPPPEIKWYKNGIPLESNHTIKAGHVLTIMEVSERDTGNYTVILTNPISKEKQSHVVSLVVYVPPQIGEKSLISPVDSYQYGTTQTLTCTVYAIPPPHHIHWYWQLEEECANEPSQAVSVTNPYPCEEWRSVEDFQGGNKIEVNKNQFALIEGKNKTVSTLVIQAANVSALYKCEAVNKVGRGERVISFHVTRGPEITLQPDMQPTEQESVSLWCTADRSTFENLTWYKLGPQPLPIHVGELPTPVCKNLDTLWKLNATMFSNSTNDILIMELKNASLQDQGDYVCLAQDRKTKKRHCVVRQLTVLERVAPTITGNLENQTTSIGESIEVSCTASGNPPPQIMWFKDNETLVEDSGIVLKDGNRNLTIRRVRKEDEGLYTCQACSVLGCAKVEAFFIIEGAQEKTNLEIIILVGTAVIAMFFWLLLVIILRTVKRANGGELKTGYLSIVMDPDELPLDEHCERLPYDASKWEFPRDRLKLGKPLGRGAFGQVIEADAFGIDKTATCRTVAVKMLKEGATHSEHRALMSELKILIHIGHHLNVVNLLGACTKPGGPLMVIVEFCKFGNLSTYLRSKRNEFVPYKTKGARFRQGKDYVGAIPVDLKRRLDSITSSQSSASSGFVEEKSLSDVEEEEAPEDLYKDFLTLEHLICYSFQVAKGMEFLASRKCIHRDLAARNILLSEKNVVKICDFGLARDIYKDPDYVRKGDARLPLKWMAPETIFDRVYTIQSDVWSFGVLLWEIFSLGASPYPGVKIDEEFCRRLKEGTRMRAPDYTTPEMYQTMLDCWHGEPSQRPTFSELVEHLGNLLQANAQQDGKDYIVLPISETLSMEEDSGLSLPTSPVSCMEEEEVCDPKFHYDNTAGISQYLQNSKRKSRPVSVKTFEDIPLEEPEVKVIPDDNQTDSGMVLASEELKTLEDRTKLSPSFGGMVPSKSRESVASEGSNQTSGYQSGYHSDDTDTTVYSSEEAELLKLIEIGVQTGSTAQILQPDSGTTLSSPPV
In short: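 Luminescent ADP detection after a 180-min room-temperature reaction of srctide plus ATP (2 mg/mL and 2.4 mM in 2× mix) in pH 7.5 HEPES buffer with DTT, Pluronic and ovalbumin. Compounds, 11 points from 10 µM, first pre-incubated 30 min with enzyme (2× mix 10 nM). IC50s fitted after scaling between DMSO and 1 µM TAK-593 controls.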

[3] = 800 μM ATP, 0.5 μM TK-substrate biotin peptide, 30 min pre-incubation, 3 hours reaction, read-out: PDGFR HTRF IC50
[4] = A10 cells, 3 hours compound, 15 ng/mL PDGFbb for 10 minutes, read-out: PDGFR Cellular IC50

Chain of His6-TEV-PDGFRβ (557-1016) (P09619 whole entry, looked up): as the sequence (P09619 whole entry, looked up) above

Molecule | IC50 [1, 3] [nM] | IC50 ([2]; read-out: PDGFR Lantha IC50) [nM] | IC50 (PDGFRβ; [4]) [nM] | IC50 (VEGFR2, unphosphorylated) [µM] | IC50 [1] [nM] | IC50 [2] [nM] | IC50 (PDGFRβ) [nM]
Cc1ncccc1Nc1ncc2c(Nc3cc(NC(=O)CN4CCC[C@@H]4C)cnc3C)nn(C)c2n1 [Example 145, (S)—N-(6-methyl-5-((1-methyl-6-((2-methylpyridin-3-yl)amino)-1H-pyrazolo[3,4-d]pyrimidin-3-yl)amino)pyridin-3-yl)-2-(2-methylpyrrolidin-1-yl)acetamide] | 1.59 | 15.3 | 8.7 | > 7.5 |  |  | 
Cc1ncc(C(=O)NCCN2CCCC2(C)C)cc1Nc1nn(C)c2nc(Nc3ccnc(N4CCN(CCO)CC4)c3)ncc12 [Example 103, N-(2-(2,2-dimethylpyrrolidin-1-yl)ethyl)-5-((6-((2-(4-(2-hydroxyethyl)piperazin-1-yl)pyridin-4-yl)amino)-1-methyl-1H-pyrazolo[3,4-d]pyrimidin-3-yl)amino)-6-methylnicotinamide] | 0.55 | 4.8 | 443 | > 7.5 |  |  | 
Cc1cc(C(=O)NCCN2CCCOCC2)sc1Nc1nn(C)c2nc(Nc3cnn(C)c3)ncc12 [Example 62, N-(2-(1,4-oxazepan-4-yl)ethyl)-4-methyl-5-((1-methyl-6-((1-methyl-1H-pyrazol-4-yl)amino)-1H-pyrazolo[3,4-d]pyrimidin-3-yl)amino)thiophene-2-carboxamide] | 0.83 | 12.1 | 64.7 | > 7.5 |  |  | 
Cc1ncc(C(=O)NCCN2CCC3(CCC3)CC2)cc1Nc1nn(C)c2nc(Nc3cncnc3)ncc12 [Example 7, N-(2-(7-azaspiro[3.5]nonan-7-yl)ethyl)-6-methyl-5-((1-methyl-6-(pyrimidin-5-ylamino)-1H-pyrazolo[3,4-d]pyrimidin-3-yl)amino)nicotinamide] | 0.48 | 6.7 | 32.7 | > 7.5 |  |  | 
Cc1ncc(C(=O)NCCN2CCCC2(C)C)cc1Nc1nn(C)c2nc(Nc3ccnc(N4CCC(CCO)CC4)c3)ncc12 [Example 111, N-(2-(2,2-dimethylpyrrolidin-1-yl)ethyl)-5-((6-((2-(4-(2-hydroxyethyl)piperidin-1-yl)pyridin-4-yl)amino)-1-methyl-1H-pyrazolo[3,4-d]pyrimidin-3-yl)amino)-6-methylnicotinamide] | 0.51 | 5.1 | 106 | > 7.5 |  |  | 
Cc1ncc(C(=O)NCCN2CCCC2(C)C)cc1Nc1nn(C)c2nc(Nc3cncc(C(=O)O)c3)ncc12 [Example 30, 5-((3-((5-((2-(2,2-dimethylpyrrolidin-1-yl)ethyl)carbamoyl)-2-methylpyridin-3-yl)amino)-1-methyl-1H-pyrazolo[3,4-d]pyrimidin-6-yl)amino)nicotinic acid] | 3.8 | 36.8 | > 10000 | > 10 |  |  | 
CC[C@H]1COCCN1CCNC(=O)c1cnc(C)c(Nc2nn(C)c3nc(Nc4cnn(C)c4)ncc23)c1 [Example 81, (S)—N-(2-(3-ethylmorpholino)ethyl)-6-methyl-5-((1-methyl-6-((1-methyl-1H-pyrazol-4-yl)amino)-1H-pyrazolo[3,4-d]pyrimidin-3-yl)amino)nicotinamide] |  |  |  | 2.5 | 0.42 | 2.6 | 21.1
2-(3,3-dimethylazetidin-1-yl)-N-(6-methyl-5-((1-methyl-6-((1-methyl-1H-imidazol-4-yl)amino)-1H-pyrazolo[3,4-d]pyrimidin-3-yl)amino)pyridin-3-yl)acetamide [Example 141] | 1.4 | 12.5 | 9.4 | > 7.5 |  |  | 
Cc1ncc(C(=O)NCCN2CCCC2(C)C)cc1Nc1nn(C)c2nc(Nc3cccc(CC(=O)O)c3)ncc12 [Example 44, 2-(3-((3-((5-((2-(2,2-dimethylpyrrolidin-1-yl)ethyl)carbamoyl)-2-methylpyridin-3-yl)amino)-1-methyl-1H-pyrazolo[3,4-d]pyrimidin-6-yl)amino)phenyl)-acetic acid] | 1.54 | 9.7 | 2660 | 2.19 |  |  | 
Cc1ccc(C(=O)NCCN2CCC3(CC3)C2)cc1Nc1nn(C)c2nc(Nc3cnn(C)c3)ncc12 [Example 67, N-(2-(5-azaspiro[2.4]heptan-5-yl)ethyl)-4-methyl-3-((1-methyl-6-((1-methyl-1H-pyrazol-4-yl)amino)-1H-pyrazolo[3,4-d]pyrimidin-3-yl)amino)benzamide] | 0.22 | 1.9 | 9.8 | 1.66 |  |  | 
Cc1cc(C(=O)NCCN2CCC[C@@H]2C)sc1Nc1nn(C)c2nc(Nc3cnn(C)c3)ncc12 [Example 60, (S)-4-methyl-5-((1-methyl-6-((1-methyl-1H-pyrazol-4-yl)amino)-1H-pyrazolo[3,4-d]pyrimidin-3-yl)amino)-N-(2-(2-methylpyrrolidin-1-yl)ethyl)thiophene-2-carboxamide] | 0.65 | 9.7 | 67.2 | > 7.5 |  |  | 
Cc1ncc(C(=O)NCCN2CCC(C)(C)C2)cc1Nc1nn(C)c2nc(Nc3cncnc3)ncc12 [Example 8, N-(2-(3,3-dimethylpyrrolidin-1-yl)ethyl)-6-methyl-5-((1-methyl-6-(pyrimidin-5-ylamino)-1H-pyrazolo[3,4-d]pyrimidin-3-yl)amino)nicotinamide] | 0.39 | 5.8 | 48 | > 7.5 |  |  | 
Cc1ncc(C(=O)NCCN2CCCC2(C)C)cc1Nc1nn(C)c2nc(Nc3cccc(C(C)(C)C(=O)O)c3)ncc12 [Example 47, 2-(3-((3-((5-((2-(2,2-dimethylpyrrolidin-1-yl)ethyl)carbamoyl)-2-methylpyridin-3-yl)amino)-1-methyl-1H-pyrazolo[3,4-d]pyrimidin-6-yl)amino)phenyl)-2-methylpropanoic acid] | 2.58 | 14.6 | > 3000 | 2.42 |  |  | 
Cc1ncc(C(=O)NCCN2CCCC2(C)C)cc1Nc1nn(C)c2nc(Nc3cnn(C)n3)ncc12 [Example 40, N-(2-(2,2-dimethylpyrrolidin-1-yl)ethyl)-6-methyl-5-((1-methyl-6-((2-methyl-2H-1,2,3-triazol-4-yl)amino)-1H-pyrazolo[3,4-d]pyrimidin-3-yl)amino)nicotinamide] | 1.22 | 13 | 14.1 | > 7.5 |  |  | 
COc1ncccc1Nc1ncc2c(Nc3cc(NC(=O)CN4CCC[C@@H]4C)cnc3C)nn(C)c2n1 [Example 146, (S)—N-(5-((6-((2-methoxypyridin-3-yl)amino)-1-methyl-1H-pyrazolo[3,4-d]pyrimidin-3-yl)amino)-6-methylpyridin-3-yl)-2-(2-methylpyrrolidin-1-yl)acetamide] | 2.33 | 19.7 | 14.1 | > 7.5 |  |  | 
Cc1ncc(C(=O)NCCN2CCCC[C@@H]2C)cc1Nc1nn(C)c2nc(Nc3cncnc3)ncc12 [Example 5, (S)-6-methyl-5-((1-methyl-6-(pyrimidin-5-ylamino)-1H-pyrazolo[3,4-d]pyrimidin-3-yl)amino)-N-(2-(2-methylpiperidin-1-yl)ethyl)nicotinamide] | 0.65 | 5.3 | 67.5 | 2.07 |  |  | 
Cc1ncc(C(=O)NCCN(CCO)C2CCCC2)cc1Nc1nn(C)c2nc(Nc3cnn(C)c3)ncc12 [Example 97, N-(2-(cyclopentyl(2-hydroxyethyl)amino)ethyl)-6-methyl-5-((1-methyl-6-((1-methyl-1H-pyrazol-4-yl)amino)-1H-pyrazolo[3,4-d]pyrimidin-3-yl)amino)nicotinamide] | 0.46 | 2.4 | 101 | > 7.5 |  |  | 
